Data on 5 compounds can be found in patent EP4640052A1 (BASF SE, priority 2024, dated 2025).

Molecules are shown by their SMILES. Where “and” joins values, the source holds several entries; their conditions need not be identical. Equal values may be shown once. Read-outs that look alike come from different tables or passages of the source.

In assay [1] the test system is Phakopsora pachyrhizi. The note with it: in vivo.
Assay [2] relates to Pyrenophora teres (PYRNTE), Qol resistant (F129L). Put plainly: microbe, parasite or virus in culture. In kind it is cell-based.
In assay [3] the test system is Phakopsora pachyrhizi. Put plainly: Green house use example 14: protective control of soybean rust on soybeans (PHAKPA F129L P2). In kind it is in vivo. The note with it: single compound, 0.5 ppm.
Assay [4] deals with Blumeria graminis f. sp. tritici. As to conditions: in vivo.
Assay [5] relates to Septoria tritici (SEPTTR). Put plainly: microbe, parasite or virus in culture. In kind it is cell-based. As to conditions: for inhibition of growth at 0.063 ppm / inhibition of growth at 0.25 ppm / inhibition of growth at 1 ppm: Zymoseptoria tritici, 168 h, read-out: Observed efficacy.
Assay [6] deals with Alternaria solani (ALTESO). Kind of assay: microbe, parasite or virus in culture. In kind it is cell-based. As to conditions: Alternaria solani, 168 h, read-out: Observed efficacy.
Assay [7] relates to Puccinia triticina (syn. P. recondita). Put plainly: Green house use example 9: curative control of brown rust on wheat (PUCCRT K4). In kind it is in vivo.
Assay [8] relates to Sclerotinia sclerotiorum (SCLESC). Kind of assay: microbe, parasite or virus in culture. In kind it is cell-based.
Assay [9] has as its system Pyricularia oryzae (PYRIOR). Put plainly: microbe, parasite or virus in culture. In kind it is cell-based. As to conditions: for inhibition of growth at 0.016 ppm / inhibition of growth at 0.063 ppm: Pyricularia oryzae, 168 h, read-out: Observed efficacy; for Observed efficacy: single active.
Assay [10] has as its system Phakopsora pachyrhizi. Kind of assay: Green house use example 13: curative control of soybean rust on soybeans (PHAKPA F129L K4). In kind it is in vivo.
The subject of assay [11] is Monilinia sp. (MONISP). Put plainly: microbe, parasite or virus in culture. In kind it is cell-based. As to conditions: Monilinia, 168 h, read-out: Observed efficacy.
Assay [12] relates to Cercospora sojina (CERCSO). In kind it is cell-based.
Assay [13] concerns Blumeria graminis f. sp. tritici. Kind of assay: Green house use example 11: control of powdery mildew on wheat, sprayed 2 days after inoculation (ERYSGT K2). In kind it is in vivo. As to conditions: G143A strain, single active.
In assay [14] the test system is Corynespora cassiicola (CORYCA), Qol resistant (G143A); SDHI resistant (N75S in SdHC). In kind it is cell-based.
The mark [15] stands for this setting: Pyrenophora teres, 168 h, read-out: Observed efficacy.
Setting [16] is: Trial 1, single compound, 4 ppm.
Where [17] appears, read: Trial 2, single compound, 1 ppm.
The mark [18] stands for this setting: Sclerotinia sclerotiorum, 168 h, read-out: Observed efficacy.
[19] abbreviates: Trial 3, single compound, 4 ppm.

For `CO/C=C(/C(=O)OC)c1cccc(Cl)c1CO/N=C(\COC)c1ccccc1` [I.1, Methyl-(E)-2-[3-chloro-2-[[(Z)-(2-methoxy-1-phenyl-ethylidene)amino]oxymethyl]-phenyl]-3-methoxy-prop-2-enoate], the Observed efficacy in assay [1] stood at 61; in assay [3] it was 80; in [4] it was 0; in [7] (Trial 1, single compound, 1 ppm) it was 3; in assay [7] (setting [16]) it was 58; in assay [7] (setting [17]), 0. Also, the Observed efficacy in [10] (setting [16]) was 37; in assay [10] (setting [19]), 71. The values for the inhibition of growth at 0.016 ppm in [2] (setting [15]), in assay [6] and in [9] were 14%, 12% and 25%, respectively. Also, the inhibition of growth at 0.063 ppm in [2] (setting [15]) came out at 48%; in assay [5], 0%; in assay [6], 29%; in assay [8] (setting [18]), 2%; in [9], 64%. The figures for the inhibition of growth at 0.25 ppm in [2] (setting [15]) and in assay [5] were 72% and 45%, respectively.
With `CC(Cc1ccc(C(C)(C)C)cc1)CN1C[C@@H](C)O[C@@H](C)C1` (stereo partly shown) [fenpropimorph, reference compound], the inhibition of growth at 0.016 ppm in assay [11] was found to be 2%; in assay [9], 0%. In addition, the Observed efficacy in assay [1] was determined as 0; in assay [4], 16; in [12], 3%; in assay [13] (16 ppm) it was 32; in assay [13] (63 ppm), 35; in [10] (setting [16]) it was 8. For the same compound, the Observed efficacy in assay [10] (Trial 1, single compound, 12 ppm) is 13; in [10] (Trial 2, single compound, 4 ppm), 6; in assay [10] (Trial 2, single compound, 16 ppm) it was 11. Besides, the inhibition of growth at 1 ppm in assay [2] (setting [15]) came out at 33%; in assay [5] it was 44%; in [6], 61%; in assay [8] (setting [18]), 39%. The inhibition of growth at 0.063 ppm in [5] came to 0%. The inhibition of growth at 0.25 ppm in [5] amounted to 0%; in [6], 18%. The inhibition of growth at 4 ppm in assay [8] (setting [18]) worked out at 65%.
On to `CO/C=C(/C(=O)OC)c1cccc(Cl)c1CO/N=C(\COC)c1c(F)cc(F)cc1F` [I.9, Methyl-(E)-2-[3-chloro-2-[[(Z)-[2-methoxy-1-(2,4,6-trifluorophenyl)ethylidene]-amino]oxymethyl]phenyl]-3-methoxy-prop-2-enoate], for which the inhibition of growth at 0.001 ppm in [11] amounted to 17%. Besides, the inhibition of growth at 0.063 ppm in assay [11] is 42%; in [2] (setting [15]), 44%; in [5], 0%; in [6] it was 3%; in assay [8] (setting [18]), 11%; in [9], 32%. Also, the inhibition of growth at 0.25 ppm in assay [11] was determined as 76%; in assay [2] (setting [15]), 74%; in [5], 6%. The Observed efficacy in [1] was determined as 60; in [3] it was 59; in [7] (setting [17]), 0; in assay [7] (Trial 2, single compound, 2 ppm), 0; in assay [10] (setting [16]) it was 12; in assay [10] (setting [19]), 3. For the same compound, the inhibition of growth at 0.016 ppm in [2] (setting [15]) is 7%. Also, the inhibition of growth at 1 ppm in [5] stood at 60%; in assay [8] (setting [18]), 50%. Besides, the inhibition of growth at 0.004 ppm in assay [6] was 1%.
In the case of `COc1ccnc(C(=O)N[C@@H](C)C(=O)O[C@@H](C)C(c2ccc(F)cc2)c2ccc(F)cc2)c1OC(C)=O` [florylpicoxamid, reference compound], the Observed efficacy in [2] is 39 and 21; in assay [12], 16%; in assay [9] (0.016 ppm), 66%; in [14] it was 13%.
`Cc1nc2c(F)c(F)ccc2cc1Oc1cccc(F)c1C(C)(C)O` [ipflufenoquin, reference compound]: the Observed efficacy is 48 and 41 and 26 in assay [5]; 4 and 3 in assay [8]; 12% in assay [9] (0.004 ppm); 15% in assay [9] (0.016 ppm); 12% in assay [9] (0.063 ppm); 11% in assay [14].
